Earlier results as cited in patent publication US8741809B2, “Liquid pyraclostrobin-containing crop protection formulations” (BASF SE, priority 2008, dated 2014).

Details: at 20° C.

| SMILES | solubility of the respective solvent in water |
| --- | --- |
| CC(=O)c1ccccc1 [acetophenone] | (5.5 g/l) |
| OCc1ccccc1 [benzyl alcohol] | (39 g/l) |
| O=C1CCCCC1 [cyclohexanone] | (24 g/l) |
